One series deals with human CCR2 receptors (Homo sapiens, UniProt P41597). As to the kind of experiment: CCR2 inhibitory activity. It is filed as binding. The settings on record: Receptor CCR2. On the procedure: (§1) The CCR2 and CCR5 inhibitory activity of (4-((3R,4R)-3-methoxytetrahydro-pyran-4-ylamino)piperidin-1-yl)(5-methyl-6-(((2R,6S)-6-(p-tolyl)tetrahydro-2H-pyran-2-yl)methylamino)pyrimidin-4-yl)methanone citrate was evaluated against human CCR2 receptors and human CCR5 receptors.

Series [1] can be described thus: Sorption behavior (dynamic vapour sorption isotherms). In kind it is physicochemical. On the procedure:
Sorption isotherms were generated using an IGAsorp water sorption monitor from Hiden Isochema. Adsorption and desorption isotherms were obtained at 25° C. with 10% r.h. step intervals ranging from 10% r.h. to 90% r.h.
For BR salt form only: Sorption isotherms were registered on a DVS-1 water sorption monitor from Surface Measurement Systems.

The target of a further series is human CCR5 receptors (Homo sapiens, UniProt P51681). As to the kind of experiment: CCR5 inhibitory activity. It is filed as binding. The settings on record: Receptor CCR5. On the procedure: as §1
Chain of human CCR5 receptors (P51681 whole entry): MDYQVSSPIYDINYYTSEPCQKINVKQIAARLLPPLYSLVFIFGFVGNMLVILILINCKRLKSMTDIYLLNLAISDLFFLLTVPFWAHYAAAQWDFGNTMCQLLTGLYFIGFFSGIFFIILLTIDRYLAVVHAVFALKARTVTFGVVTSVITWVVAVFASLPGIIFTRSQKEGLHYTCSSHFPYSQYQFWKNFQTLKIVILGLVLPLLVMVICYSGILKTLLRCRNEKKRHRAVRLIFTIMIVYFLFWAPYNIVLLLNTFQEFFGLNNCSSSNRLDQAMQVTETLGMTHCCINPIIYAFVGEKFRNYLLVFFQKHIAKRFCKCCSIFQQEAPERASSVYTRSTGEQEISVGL

Chain of human CCR2 receptors (P41597 whole entry): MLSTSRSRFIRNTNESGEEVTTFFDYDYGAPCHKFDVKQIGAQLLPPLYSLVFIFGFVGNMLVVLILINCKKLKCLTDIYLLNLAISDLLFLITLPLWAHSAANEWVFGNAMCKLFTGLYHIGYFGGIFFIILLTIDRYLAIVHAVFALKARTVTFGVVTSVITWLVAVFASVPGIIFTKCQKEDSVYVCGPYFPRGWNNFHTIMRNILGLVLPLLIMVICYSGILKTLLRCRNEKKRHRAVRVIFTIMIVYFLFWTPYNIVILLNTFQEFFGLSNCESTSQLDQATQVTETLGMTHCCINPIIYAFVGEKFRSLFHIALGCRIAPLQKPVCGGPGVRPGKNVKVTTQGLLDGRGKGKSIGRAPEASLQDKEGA

On human CCR2 receptors, `CO[C@H]1COCC[C@H]1NC1CCN(C(=O)c2ncnc(NC[C@H]3CCC[C@@H](c4ccc(C)cc4)O3)c2C)CC1.O=C(O)CC(O)(CC(=O)O)C(=O)O` [Compound 1, (4-((3R,4R)-3-Methoxytetrahydro-pyran-4-ylamino)piperidin-1-yl)(5-methyl-6-(((2R,6S)-6-(p-tolyl)tetrahydro-2H-pyran-2-yl)methylamino)pyrimidin-4-yl)methanone citrate] had a half-inhibitory concentration (IC50) of 0.05 µM and an inhibition constant Ki of 0.0042 µM. Moreover, the “state of the compound after the sorption experiment” value in series [1] (after the sorption experiment) was “still remains as solid material”. Further, the “stability against relative humidity” value in series [1] (relative humidity, 25° C.) was “up to 80%”. This compound showed an uptake of water in series [1] (sorption experiment, relative humidity up to 80%, uptake reversible) of 2.6%. At human CCR5 receptors, it took 0.088 µM to reach half-maximal inhibition (IC50) and the inhibition constant (Ki) was found to be 0.075 µM.

A word on the IC50: it is the concentration that inhibits the measured activity by half. A high value points to a need for much substance. For orientation: Ki means the equilibrium dissociation constant of an inhibitor or competing ligand from its target. A lower Ki goes with higher affinity.
